The structures appear in SMILES notation. Activity calls are given as the source filed them. No cut-off for these calls is given here.

A word on the IC50: it is the point on the concentration scale where inhibition reaches its midpoint. In general, inhibition refers to the drop in the measured response relative to a control, in per cent.

One experiment addresses Translin-associated protein X (Homo sapiens, UniProt Q99598, E126A). Briefly: Inhibition of wild type His-tagged translin/trax E126A mutant (unknown origin) coexpressed in Escherichia coli BL21 cells assessed as reduction in pre-miRNA degradation by gel electrophoresis assay.
Turning to `O=c1oc2c(O)c(O)cc3c(=O)oc4c(O)c(O)cc1c4c23` [ELLAGIC ACID], the IC50 is 3.5 µM.

Another experiment has as its system T1, Translin-associated protein X (Homo sapiens), Q99598 [E126A].
T1 sequence (whole entry): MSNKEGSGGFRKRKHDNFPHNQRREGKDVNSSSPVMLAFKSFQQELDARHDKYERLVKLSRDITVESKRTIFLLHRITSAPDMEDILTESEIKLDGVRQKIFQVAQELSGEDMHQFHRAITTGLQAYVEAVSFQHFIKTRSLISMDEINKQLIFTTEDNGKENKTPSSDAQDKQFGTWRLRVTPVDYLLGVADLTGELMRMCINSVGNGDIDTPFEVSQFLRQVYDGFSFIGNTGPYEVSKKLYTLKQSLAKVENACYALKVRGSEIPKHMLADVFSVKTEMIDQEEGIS
Briefly: Inhibition of wild type His-tagged translin/trax E126A mutant (unknown origin) coexpressed in Escherichia coli BL21 cells using RNase Alert as substrate at 30 uM incubated for 10 mins prior to substrate addition monitored over 60 mins by fluorescence assay.
With `O=C(O[C@@H]1Cc2c(O)cc(O)cc2O[C@@H]1c1cc(O)c(O)c(O)c1)c1cc(O)c(O)c(O)c1`, the inhibition was determined as 88%.

`CCCCCCCCCCCCCCCCC(C(=O)O)C(O)(CC(=O)O)C(=O)O` (stereo unspecified): the inhibition was determined as 58%.

As for `Cc1ccc(C(=O)Nc2ccc(S(=O)(=O)O)c3cc(S(=O)(=O)O)cc(S(=O)(=O)O)c23)cc1NC(=O)c1cccc(NC(=O)Nc2cccc(C(=O)Nc3cc(C(=O)Nc4ccc(S(=O)(=O)O)c5cc(S(=O)(=O)O)cc(S(=O)(=O)O)c45)ccc3C)c2)c1`, the inhibition turned out to be 61%.

As for `O=S(=O)(O)c1cc(N=C=S)ccc1/C=C/c1ccc(N=C=S)cc1S(=O)(=O)O`, the inhibition worked out at 103%.

Consider `COc1cc(C)c2c(c1C=O)Oc1c(c(C)c(O)c3c1C(O)OC3=O)OC2=O` (stereo unspecified), for which the inhibition was determined as 58%.

Consider `CCCCC(CC)CNC(=N)NC(=N)NCCCCCCNC(=N)NC(=N)NCC(CC)CCCC` (stereo unspecified), for which the inhibition worked out at 103%.

As to `O=C(OC[C@H]1O[C@@H](OC(=O)c2cc(O)c(O)c(OC(=O)c3cc(O)c(O)c(O)c3)c2)[C@H](OC(=O)c2cc(O)c(O)c(OC(=O)c3cc(O)c(O)c(O)c3)c2)[C@@H](OC(=O)c2cc(O)c(O)c(OC(=O)c3cc(O)c(O)c(O)c3)c2)[C@@H]1OC(=O)c1cc(O)c(O)c(OC(=O)c2cc(O)c(O)c(O)c2)c1)c1cc(O)c(O)c(OC(=O)c2cc(O)c(O)c(O)c2)c1`, the inhibition came to 103%.

As to `Oc1c(Cl)cc(Cl)c(Cl)c1Cc1c(O)c(Cl)cc(Cl)c1Cl`, the inhibition was 66%.

As for `CC(C)(O/N=C(\C(=O)N[C@@H]1C(=O)N2C(C(=O)[O-])=C(C[n+]3ccccc3)CS[C@H]12)c1csc(N)n1)C(=O)O`, the inhibition is 100%.

For the compound `O=c1c(O)c(-c2ccc(O)c(O)c2)oc2cc(O)cc(O)c12`, the inhibition is 58%.

On to `Oc1cc(O)c2c(c1)O[C@H](c1cc(O)c(O)c(O)c1)[C@H](O)C2`, for which the inhibition was determined as 68%.

For `Cc1cc(O)c(C=O)c2c1C(=O)Oc1c(C)c(O)c3c(c1O2)C(O)OC3=O` (stereo unspecified), the inhibition worked out at 66%.

As to `CCCCCCCCCCCCCCCC[n+]1ccccc1`, the inhibition came to 56%.

Consider `O=c1c(-c2cc(O)c(O)c(O)c2)coc2cc(O)c(O)c(O)c12`, for which the inhibition was determined as 78%.

For `Oc1cc2c(cc1O)[C@@H]1c3ccc(O)c(O)c3OC[C@]1(O)C2`, the inhibition worked out at 63%.

Turning to `O=c1oc2c(O)c(O)cc3c(=O)oc4c(O)c(O)cc1c4c23` [ELLAGIC ACID], the inhibition stood at 94%.

Consider `O=C(Oc1cc(O)cc2c1C[C@@H](OC(=O)c1cc(O)c(O)c(O)c1)[C@@H](c1cc(O)c(O)c(O)c1)O2)c1cc(O)c(O)c(O)c1`, for which the inhibition worked out at 83%.

Regarding `O=c1c(O)cc(C2Oc3cc(O)cc(O)c3CC2O)cc2cc(O)c(O)c(O)c12` (stereo unspecified), the inhibition is 75%.

As to `O=C1C(O)=C(O)C(=O)C(O)=C1O`, the inhibition worked out at 66%.

Another experiment shares this test system. Briefly: Inhibition of wild type His-tagged translin/trax E126A mutant (unknown origin) coexpressed in Escherichia coli BL21 cells assessed as increase in Dicer-mediated 5'-gamma32P-ATP labeled pre-miRNA processing at 5 uM after 15 mins by gel electrophoresis assay.
As for `O=c1oc2c(O)c(O)cc3c(=O)oc4c(O)c(O)cc1c4c23` [ELLAGIC ACID], the inhibition result was “Active”.

The values are drawn from ChEMBL document CHEMBL3853344, “A druggable target for rescuing microRNA defects” (Bioorg Med Chem Lett, 2016).
